Reference: PubChem BioAssay AID1259407 (Chemical Carcinogenesis Research Information System (CCRIS), 2018)
Activity calls are given as the source filed them. The rule behind the calls is not given here.

Test system: CCRIS mutagenicity, Ames/micronucleus/aberration tests
Test: CCRIS mutagenicity studies

`COc1ccc(C(=O)Nc2ccccc2)cc1[N+](=O)[O-]` was tested, and the mutagenic call (Test System: AMES SALMONELLA TYPHIMURIUM, Strain/Indicator: TA97, Metabolic Activation: HAMSTER, LIVER, S-9, AROCLOR 1254 (10%), Method: PREINCUBATION) was “active; positive”, the mutagenic call (Test System: AMES SALMONELLA TYPHIMURIUM, Strain/Indicator: TA97, Metabolic Activation: NONE, Method: PREINCUBATION) was “inactive; negative” and the mutagenic call (Test System: AMES SALMONELLA TYPHIMURIUM, Strain/Indicator: TA97, Metabolic Activation: RAT, LIVER, S-9, AROCLOR 1254 (10%), Method: PREINCUBATION) was “active; positive”. The mutagenic call (Test System: AMES SALMONELLA TYPHIMURIUM, Strain/Indicator: TA98, Metabolic Activation: HAMSTER, LIVER, S-9, AROCLOR 1254 (10%), Method: PREINCUBATION) was “active; positive”, the mutagenic call (Test System: AMES SALMONELLA TYPHIMURIUM, Strain/Indicator: TA98, Metabolic Activation: NONE, Method: PREINCUBATION) was “inactive; negative” and the mutagenic call (Test System: AMES SALMONELLA TYPHIMURIUM, Strain/Indicator: TA98, Metabolic Activation: RAT, LIVER, S-9, AROCLOR 1254 (10%), Method: PREINCUBATION) was “active; positive”. For the same molecule, the mutagenic call (Test System: AMES SALMONELLA TYPHIMURIUM, Strain/Indicator: TA100, Metabolic Activation: HAMSTER, LIVER, S-9, AROCLOR 1254 (10%), Method: PREINCUBATION) was “active; positive”, the mutagenic call (Test System: AMES SALMONELLA TYPHIMURIUM, Strain/Indicator: TA100, Metabolic Activation: NONE, Method: PREINCUBATION) was “active; positive” and the mutagenic call (Test System: AMES SALMONELLA TYPHIMURIUM, Strain/Indicator: TA100, Metabolic Activation: RAT, LIVER, S-9, AROCLOR 1254 (10%), Method: PREINCUBATION) was “active; positive”. For the same molecule, the mutagenic call (Test System: AMES SALMONELLA TYPHIMURIUM, Strain/Indicator: TA1535, Metabolic Activation: HAMSTER, LIVER, S-9, AROCLOR 1254 (10%), Method: PREINCUBATION) was “inactive; negative”, the mutagenic call (Test System: AMES SALMONELLA TYPHIMURIUM, Strain/Indicator: TA1535, Metabolic Activation: NONE, Method: PREINCUBATION) was “inactive; negative” and the mutagenic call (Test System: AMES SALMONELLA TYPHIMURIUM, Strain/Indicator: TA1535, Metabolic Activation: RAT, LIVER, S-9, AROCLOR 1254 (10%), Method: PREINCUBATION) was “inactive; negative”. The mutagenic call (Test System: AMES SALMONELLA TYPHIMURIUM, Strain/Indicator: TA1537, Metabolic Activation: HAMSTER, LIVER, S-9, AROCLOR 1254 (10%), Method: PREINCUBATION) was “active; positive”, the mutagenic call (Test System: AMES SALMONELLA TYPHIMURIUM, Strain/Indicator: TA1537, Metabolic Activation: NONE, Method: PREINCUBATION) was “inactive; negative” and the mutagenic call (Test System: AMES SALMONELLA TYPHIMURIUM, Strain/Indicator: TA1537, Metabolic Activation: RAT, LIVER, S-9, AROCLOR 1254 (10%), Method: PREINCUBATION) was “active; positive”.
In the case of `FC(F)(F)C(F)(F)C(Cl)Cl`, the mutagenic call (Test System: AMES SALMONELLA TYPHIMURIUM, Strain/Indicator: TA98, Metabolic Activation: NONE, Method: STANDARD PLATE) is reported as “inactive; negative”, the mutagenic call (Test System: AMES SALMONELLA TYPHIMURIUM, Strain/Indicator: TA98, Metabolic Activation: RAT LIVER S-9, PHENOBARBITAL, 5,6-BENZOFLAVONE, Method: STANDARD PLATE) is reported as “inactive; negative” and the mutagenic call (Test System: AMES SALMONELLA TYPHIMURIUM, Strain/Indicator: TA100, Metabolic Activation: NONE, Method: STANDARD PLATE) is reported as “inactive; negative”. For the same molecule, the mutagenic call (Test System: AMES SALMONELLA TYPHIMURIUM, Strain/Indicator: TA100, Metabolic Activation: RAT LIVER S-9, PHENOBARBITAL, 5,6-BENZOFLAVONE, Method: STANDARD PLATE) was “inactive; negative”, the mutagenic call (Test System: AMES SALMONELLA TYPHIMURIUM, Strain/Indicator: TA1535, Metabolic Activation: NONE, Method: STANDARD PLATE) was “inactive; negative” and the mutagenic call (Test System: AMES SALMONELLA TYPHIMURIUM, Strain/Indicator: TA1535, Metabolic Activation: RAT LIVER S-9, PHENOBARBITAL, 5,6-BENZOFLAVONE, Method: STANDARD PLATE) was “inactive; negative”. The mutagenic call (Test System: AMES SALMONELLA TYPHIMURIUM, Strain/Indicator: TA1537, Metabolic Activation: NONE, Method: STANDARD PLATE) was “inactive; negative”, the mutagenic call (Test System: AMES SALMONELLA TYPHIMURIUM, Strain/Indicator: TA1537, Metabolic Activation: RAT LIVER S-9, PHENOBARBITAL, 5,6-BENZOFLAVONE, Method: STANDARD PLATE) was “inactive; negative” and the mutagenic call (Test System: ESCHERICHIA COLI, Strain/Indicator: WP2 UVR A, Metabolic Activation: NONE, Method: STANDARD PLATE) was “inactive; negative”. For the same molecule, the mutagenic call (Test System: ESCHERICHIA COLI, Strain/Indicator: WP2 UVR A, Metabolic Activation: RAT LIVER S-9, PHENOBARBITAL, 5,6-BENZOFLAVONE, Method: STANDARD PLATE) was “inactive; negative” and the mutagenic call (Test System: UDS RAT HEPATOCYTES IN VIVO, Strain/Indicator: THYMIDINE INCORPORATION, Metabolic Activation: NONE, Method: INHALATION (6HR, NOSE-ONLY, 2-OR 16-HR HARVEST)/AUTORADIOGRAPHY) was “inactive; negative”.
`ClC1(Cl)[C@H](c2ccccc2)[C@@H]1c1ccccc1` was tested, and the mutagenic call (Test System: CHINESE HAMSTER V-79, Strain/Indicator: V-79 (HPRT)/6-THIOGUANINE, Metabolic Activation: NONE) was “inactive; negative”.
`O/N=C/c1ccncc1` was tested, and the mutagenic call (Test System: AMES SALMONELLA TYPHIMURIUM, Strain/Indicator: TA102, Metabolic Activation: RAT, LIVER, S-9, PHENOBARBITAL AND 5,6-BENZOFLAVONE, Method: STANDARD PLATE) was “inactive; negative”, the mutagenic call (Test System: AMES SALMONELLA TYPHIMURIUM, Strain/Indicator: TA2638, Metabolic Activation: RAT, LIVER, S-9, PHENOBARBITAL AND 5,6-BENZOFLAVONE, Method: STANDARD PLATE) was “inactive; negative” and the mutagenic call (Test System: E. COLI, Strain/Indicator: WP2 (PKM101), Metabolic Activation: RAT, LIVER, S-9, PHENOBARBITAL AND 5,6-BENZOFLAVONE, Method: STANDARD PLATE) was “inactive; negative”. The mutagenic call (Test System: E. COLI, Strain/Indicator: WP2 UVRA (PKM101), Metabolic Activation: RAT, LIVER, S-9, PHENOBARBITAL AND 5,6-BENZOFLAVONE, Method: STANDARD PLATE) was “active; positive”.
